Test results published in patent publication US20230093861A1, “RAPAMYCIN ANALOGS AS MTOR INHIBITORS” (Revolution Medicines, Inc., priority 2017, published 2023).
Read-outs that look alike come from different tables or passages of the source.

Assays:
[1] = test system: P-Akt (S473); experiment: Cell based AlphaLISA assay, inhibition of P-Akt (S473) (mTORC2 substrate phosphorylation) in MDA-MB-468 cells; settings: Homo sapiens, AlphaLISA, two to four hours at 37° C., read-out: pIC50 for Inhibition of mTORC1 and mTORC2 Substrate Phosphorylation, p-AKT 1/2/3 -(S473) (converted)
Method in brief: (§1)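 Cells are exposed to inhibitor, then the assay buffer is taken off and kit lysis buffer added. Lysates undergo AlphaLISA SureFire Ultra detection in duplicate.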

[2] = test system: P-4E-BP1 (T37/46); experiment: Cell based AlphaLISA assay, inhibition of P-4E-BP1 (T37/46) (mTORC1 substrate phosphorylation) in MDA-MB-468 cells; settings: Homo sapiens, AlphaLISA, two to four hours at 37° C., read-out: pIC50 for Inhibition of mTORC1 and mTORC2 Substrate Phosphorylation, P-4E-BP1-(T37/46) (converted)
Method in brief: as §1

[3] = test system: P-P70S6K (T389); experiment: Cell based AlphaLISA assay, inhibition of P-P70S6K (T389) (mTORC1 substrate phosphorylation) in MDA-MB-468 cells; settings: Homo sapiens, 4 h, AlphaLISA, two to four hours at 37° C., read-out: pIC50 for Inhibition of mTORC1 and mTORC2 Substrate Phosphorylation, P-P70S6K-(T389) (converted)
Method in brief: as §1

| Structure (SMILES) | IC50 ([1]; MDA-MB-468, 4 h) | IC50 ([2]; MDA-MB-468, 4 h) | IC50 [3] | IC50 ([1]; 4 h) | IC50 ([2]; 4 h) |
| --- | --- | --- | --- | --- | --- |
| CO[C@H]1C[C@@H]2CC[C@@H](C)[C@@](O)(O2)C(=O)C(=O)N2CCCC[C@H]2C(=O)O[C@H]([C@H](C)C[C@@H]2CC[C@@H](O)[C@H](OC)C2)C[C@@H](OC)[C@H](C)/C=C(\C)[C@@H](O)[C@@H](OC)C(=NOCc2cn(CCOCCOCCOCCOCCOCCOCCOCCOCCC(=O)NCCCCn3nc(-c4ccc5oc(N)nc5c4)c4c(N)ncnc43)nn2)[C@H](C)C[C@H](C)/C=C/C=C/C=C/1C [Example 17] | 31.6 to 1000 nM | 3.16 to 31.6 nM | 1 to 10 nM |  |  |
| CO[C@H]1C[C@@H]2CC[C@@H](C)[C@@](O)(O2)C(=O)C(=O)N2CCCC[C@H]2C(=O)O[C@H]([C@H](C)C[C@@H]2CC[C@H](n3nncc3-c3cccc(-c4cnc(N5CCN(C(=O)CCc6cn(CCOCCOCCOCCC(=O)NCCCCn7nc(-c8ccc9oc(N)nc9c8)c8c(N)ncnc87)nn6)CC5)nc4)c3)[C@H](OC)C2)CC(=O)[C@H](C)/C=C(\C)[C@@H](O)[C@@H](OC)C(=O)[C@H](C)C[C@H](C)/C=C/C=C/C=C/1C [Example 48] | 3.16 to 31.6 nM | < 3.16 nM | < 1 nM |  |  |
| CO[C@H]1C[C@@H]2CC[C@@H](C)[C@@](O)(O2)C(=O)C(=O)N2CCCC[C@H]2C(=O)O[C@H]([C@H](C)C[C@@H]2CC[C@@H](OCc3cccc(-c4cnc(N5CCN(Cc6cn(CCOCCOCCOCCOCCOCCC(=O)NCCCCn7nc(-c8ccc9oc(N)nc9c8)c8c(N)ncnc87)nn6)C(CO)C5)nc4)c3)[C@H](OC)C2)CC(=O)[C@H](C)/C=C(\C)[C@@H](O)[C@@H](OC)C(=O)[C@H](C)C[C@H](C)/C=C/C=C/C=C/1C (stereo partly drawn) [Example 23] | < 3.16 nM | < 3.16 nM | < 1 nM |  |  |
| CO[C@H]1C[C@@H]2CC[C@@H](C)[C@@](O)(O2)C(=O)C(=O)N2CCCC[C@H]2C(=O)O[C@H]([C@H](C)C[C@@H]2CC[C@H](n3cc(-c4cnc(N5CCN(c6ncc(C(=O)NCCOCCC(=O)NCCCCn7nc(-c8cc9cc(O)ccc9[nH]8)c8c(N)ncnc87)cn6)CC5)nc4)nn3)[C@H](OC)C2)CC(=O)[C@H](C)/C=C(\C)[C@@H](O)[C@@H](OC)C(=O)[C@H](C)C[C@H](C)/C=C/C=C/C=C/1C [Example 110] | > 1000 nM | 31.6 to 1000 nM | < 1 nM |  |  |
| CO[C@H]1C[C@@H]2CC[C@@H](C)[C@@](O)(O2)C(=O)C(=O)N2CCCC[C@H]2C(=O)O[C@H]([C@H](C)C[C@@H]2CC[C@@H](O)[C@H](OC)C2)C[C@@H](O)[C@H](C)/C=C(\C)[C@@H](O)[C@@H](OC)C(=NOCc2cn(-c3cnc(N4CCN(c5ncc(C(=O)NCCOCCOCCC(=O)NCCCCn6nc(-c7ccc8oc(N)nc8c7)c7c(N)ncnc76)cn5)CC4)nc3)nn2)[C@H](C)C[C@H](C)/C=C/C=C/C=C/1C [Example 192] | > 1000 nM | 3.16 to 31.6 nM | < 1 nM |  |  |
| CO[C@H]1C[C@@H]2CC[C@@H](C)[C@@](O)(O2)C(=O)C(=O)N2CCCC[C@H]2C(=O)O[C@H]([C@H](C)C[C@@H]2CC[C@@H](OCCCCc3cn(CCOCCOCCOCCC(=O)NCCOCCOCCOCCC(=O)NCCCCn4nc(-c5ccc6oc(N)nc6c5)c5c(N)ncnc54)nn3)[C@H](OC)C2)CC(=O)[C@H](C)/C=C(\C)[C@@H](O)[C@@H](OC)C(=O)[C@H](C)C[C@H](C)/C=C/C=C/C=C/1C [Example 198] | 3.16 to 31.6 nM | < 3.16 nM | < 1 nM |  |  |
| CO[C@H]1C[C@@H]2CC[C@@H](C)[C@@](O)(O2)C(=O)C(=O)N2CCCC[C@H]2C(=O)O[C@H]([C@H](C)C[C@@H]2CC[C@H](n3cc(-c4cnc(N5CCN(c6ncc(C(=O)NCCOCCOCCOCCOCCC(=O)N7CCc8cc(Cn9nc(-c%10ccc%11oc(N)nc%11c%10)c%10c(N)ncnc%109)ccc8C7)cn6)CC5)nc4)nn3)[C@H](OC)C2)CC(=O)[C@H](C)/C=C(\C)[C@@H](O)[C@@H](OC)C(=O)[C@H](C)C[C@H](C)/C=C/C=C/C=C/1C [Example 117] | > 1000 nM | > 1000 nM | < 1 nM |  |  |
| COc1cccc2cc(-c3nc([C@H]4CC[C@H](C(=O)NCCOCCOCCOCCOCCOCCOCCOCCOCCn5cc(CCCCO[C@@H]6CC[C@@H](C[C@@H](C)[C@@H]7CC(=O)[C@H](C)/C=C(\C)[C@@H](O)[C@@H](OC)C(=O)[C@H](C)C[C@H](C)/C=C/C=C/C=C(\C)[C@@H](OC)C[C@@H]8CC[C@@H](C)[C@@](O)(O8)C(=O)C(=O)N8CCCC[C@H]8C(=O)O7)C[C@H]6OC)nn5)CC4)n4ncnc(N)c34)[nH]c12 [Example 108] | 3.16 to 31.6 nM | < 3.16 nM | < 1 nM |  |  |
| CO[C@H]1C[C@@H]2CC[C@@H](C)[C@@](O)(O2)C(=O)C(=O)N2CCCC[C@H]2C(=O)O[C@H]([C@H](C)C[C@@H]2CC[C@@H](OCCCCc3cn(CCOCCOCCOCCOCCOCCOCCOCCOCCNC(=O)c4ccc(-c5ccc6c(N7CCOC[C@H]7C)nc(N7CCOC[C@H]7C)nc6n5)cc4)nn3)[C@H](OC)C2)CC(=O)[C@H](C)/C=C(\C)[C@@H](O)[C@@H](OC)C(=O)[C@H](C)C[C@H](C)/C=C/C=C/C=C/1C [Example 107] | < 3.16 nM | < 3.16 nM | < 1 nM |  |  |
| COC(=O)NC1C[C@@H]2CC[C@@H](C)[C@@](O)(O2)C(=O)C(=O)N2CCCC[C@H]2C(=O)O[C@H]([C@H](C)C[C@@H]2CC[C@@H](OCCCCc3cn(CCOCCOCCOCCOCCOCCOCCC(=O)NCCCCn4nc(-c5ccc6oc(N)nc6c5)c5c(N)ncnc54)nn3)[C@H](OC)C2)CC(=O)[C@H](C)/C=C(\C)[C@@H](O)[C@@H](OC)C(=O)[C@H](C)C[C@H](C)/C=C/C=C/C=C/1C (stereo partly drawn) [Example 39] | 31.6 to 1000 nM | 31.6 to 1000 nM | 1 to 10 nM |  |  |
| CO[C@H]1C[C@@H]2CC[C@@H](C)[C@@](O)(O2)C(=O)C(=O)N2CCCC[C@H]2C(=O)O[C@H]([C@H](C)C[C@@H]2CC[C@@H](OCCCCc3cn(CCOCCOCCOCCOCCOCCOCCOCCOCCC(=O)NCCCCn4nc(-c5cc6cc(O)ccc6[nH]5)c5c(N)ncnc54)nn3)[C@H](OC)C2)CC(=O)[C@H](C)/C=C(\C)[C@@H](O)[C@@H](OC)C(=O)[C@H](C)C[C@H](C)/C=C/C=C/C=C/1C [Example 42] |  |  | < 1 nM | 3.16 to 31.6 nM | < 3.16 nM |
| CO[C@H]1C[C@@H]2CC[C@@H](C)[C@@](O)(O2)C(=O)C(=O)N2CCCC[C@H]2C(=O)O[C@H]([C@H](C)C[C@@H]2CC[C@@H](OCc3cccc(-c4cnc(N5CCN(S(=O)(=O)CCc6cn(CCOCCOCCOCCC(=O)NCCCCn7nc(-c8ccc9oc(N)nc9c8)c8c(N)ncnc87)nn6)CC5)nc4)c3)[C@H](OC)C2)CC(=O)[C@H](C)/C=C(\C)[C@@H](O)[C@@H](OC)C(=O)[C@H](C)C[C@H](C)/C=C/C=C/C=C/1C [Example 27] | 3.16 to 31.6 nM | < 3.16 nM | < 1 nM |  |  |
| CO[C@H]1C[C@@H]2CC[C@@H](C)[C@@](O)(O2)C(=O)C(=O)N2CCCC[C@H]2C(=O)O[C@H]([C@H](C)C[C@@H]2CC[C@@H](OCCCCc3cn(CCOCCOCCOCCOCCOCCOCCOCCOCCC(=O)N4CCC(Cn5nc(-c6ccc7oc(N)nc7c6)c6c(N)ncnc65)CC4)nn3)[C@H](OC)C2)CC(=O)[C@H](C)/C=C(\C)[C@@H](O)[C@@H](OC)C(=O)[C@H](C)C[C@H](C)/C=C/C=C/C=C/1C [Example 90] |  |  | < 1 nM | < 3.16 nM | < 3.16 nM |
| CCO[C@@H]1C[C@@H]([C@H](C)C[C@@H]2CC[C@H](n3cc(CCCC(=O)NCCOCCOCCOCCC(=O)NCCOCCOCCC(=O)NCCCCn4nc(-c5ccc6oc(N)nc6c5)c5c(N)ncnc54)nn3)[C@H](OC)C2)OC(=O)[C@@H]2CCCCN2C(=O)C(=O)[C@]2(O)O[C@@H](CC[C@H]2C)C[C@H](OC)/C(C)=C/C=C/C=C/[C@@H](C)C[C@@H](C)C(=O)[C@H](OC)[C@H](O)/C(C)=C/[C@H]1C [Example 165] | > 1000 nM | 31.6 to 1000 nM | 1 to 10 nM |  |  |
| CO[C@H]1C[C@@H]2CC[C@@H](C)[C@@](O)(O2)C(=O)C(=O)N2CCCC[C@H]2C(=O)O[C@H]([C@H](C)C[C@@H]2CC[C@H](n3cc(-c4cccc(C(=O)NCCOCCOCCOCCOCCC(=O)NCCOCCOCCOCCOCCC(=O)NCCCCn5nc(-c6cc7cc(O)ccc7[nH]6)c6c(N)ncnc65)c4)nn3)[C@H](OC)C2)CC(=O)[C@H](C)/C=C(\C)[C@@H](O)[C@@H](OC)C(=O)[C@H](C)C[C@H](C)/C=C/C=C/C=C/1C [Example 142] | 31.6 to 1000 nM | 3.16 to 31.6 nM | 1 to 10 nM |  |  |
| CO[C@H]1C[C@@H]2CC[C@@H](C)[C@@](O)(O2)C(=O)C(=O)N2CCCC[C@H]2C(=O)O[C@H]([C@H](C)C[C@@H]2CC[C@@H](OCCCCc3cn(CCOCCOCCOCCOCCNC(=O)CCCCC(=O)NCCCCn4nc(-c5ccc6oc(N)nc6c5)c5c(N)ncnc54)nn3)[C@H](OC)C2)CC(=O)[C@H](C)/C=C(\C)[C@@H](O)[C@@H](OC)C(=O)[C@H](C)C[C@H](C)/C=C/C=C/C=C/1C [Example 103] | 3.16 to 31.6 nM | < 3.16 nM | < 1 nM |  |  |
